Patent publication US7569585B2, “1, 5-diaminopentan-3-ol compounds and related treatment methods” (Gruenenthal GmbH, priority 2001, dated 2009)

Molecular target: T1, human alpha2A-adrenergic receptor (Homo sapiens, UniProt P08913)
T1 construct: human HT29 cells (RB-HAL2A, NEN, Zaventem, Belgium), which endogenously express the alpha2A-adrenergic receptor; purchased NEN, Zaventem, Belgium RB-HAL2A; host or cells: human HT29 cells (endogenous expression), membrane preparation
T1 sequence (P08913 1-465): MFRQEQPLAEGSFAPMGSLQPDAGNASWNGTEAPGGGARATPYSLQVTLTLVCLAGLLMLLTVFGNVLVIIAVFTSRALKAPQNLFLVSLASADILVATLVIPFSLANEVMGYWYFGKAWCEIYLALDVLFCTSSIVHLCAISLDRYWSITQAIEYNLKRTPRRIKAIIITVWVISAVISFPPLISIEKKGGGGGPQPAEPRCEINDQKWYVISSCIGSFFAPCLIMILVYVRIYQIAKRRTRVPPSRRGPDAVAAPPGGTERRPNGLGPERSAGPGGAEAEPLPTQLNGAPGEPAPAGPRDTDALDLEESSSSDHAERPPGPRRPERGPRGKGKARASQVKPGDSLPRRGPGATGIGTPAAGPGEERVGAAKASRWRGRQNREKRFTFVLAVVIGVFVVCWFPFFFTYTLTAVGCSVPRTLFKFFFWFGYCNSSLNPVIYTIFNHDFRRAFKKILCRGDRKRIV
Assay: Binding affinity to human alpha2A-adrenergic receptor ([3H]-MK-912 displacement, HT29 cell membrane preparation)
Details: compound concentration 10 NM [sic] (method: 10 μmol/l); displacement of 0.5 nmol/l [3H]-MK-912; HT29 membranes; pH 7.4
Experimental: Method for Determining the Binding Affinity to Human Alpha2A-adrenergic Receptor
The affinity of the compounds according to the invention to the pain-relevant alpha2A-receptor was investigated as follows.
The receptor affinity of the compounds according to the invention to human alpha2A-adrenergic receptor was determined in a microtiter plate batch. For this purpose, the compounds to be tested were incubated in a concentration of 10 μmol/l with a receptor membrane preparation of human HT29 cells (RB-HAL2A, NEN, Zaventem, Belgium), which endogenously express the alpha2A-adrenergic receptor, at a protein concentration of 40 μg protein/250 μl incubation batch in the presence of 0.5 nmol/l of the radioactively marked ligands [3H]-MK-912 (NET-1059, NEN, Zaventem, Belgium) for 30 minutes, with exclusion of light, at ambient temperature. A 25 mmol/l sodium phosphate buffer at a pH of 7.4 was used as the buffer system. The unspecific bond was determined in the presence of 10 μmol/l phentolamine. After incubation, the microtiter plates were filtered on glass fiber microtiter filter plates (Whatman GF/B, Hassel, Munich) using a Brandel Cell Harvester (MPRI-96T type, Hassel, Munich) and after drying of the glass fiber filter plates and subsequent charging of the plates with 35 μl of a scintillator (Ultima Gold, Canberra-Packard, Freiburg) were measured in a microtiter plate counter (1450 Microbeta Trilux, PerkinElmer-Wallac, Freiburg) after a delay of at least 90 minutes. The glass fiber microtiter filter plates were each pretreated prior to filtration of the incubation plates for 30 minutes with 50 μl per indentation of a 25 mmol/l sodium phosphate buffer supplemented by 0.5% (v/v) polyethylene imine at a pH of 7.4. The percentage inhibition effect of the compounds was calculated as a displacement of the radioactive ligand from its specific bond to the human alpha2A-adrenergic receptor.
Determining the Binding Affinity to Human Alpha2A-adrenergic Receptor
The binding affinities to human alpha2A-adrenergic receptor were determined by the foregoing methods.

## OC1(Cc2ccc(Cl)cc2Cl)C(CN2CCCCC2)CCCC1CN1CCCCC1 (stereo not drawn) [1-(2,4-dichlorobenzyl)-2,6-bis-piperidin-1-ylmethyl-cyclohexanol]
  inhibition at 10 µM: 100%

## Cc1ccc(C)c(CC2(O)C(CN3CCCCC3)CCCC2CN2CCCCC2)c1 (stereo not drawn) [1-(2,5-dimethyl-benzyl)-2,6-bis-piperidin-1-ylmethyl-cyclohexanol]
  inhibition at 10 µM: 100%

## OC1(Cc2c(F)cccc2Cl)C(CN2CCCCC2)CCCC1CN1CCCCC1 (stereo not drawn) [1-(2-chloro-6-fluorobenzyl)-2,6-bis-piperidin-1-ylmethyl-cyclohexanol]
  inhibition at 10 µM: 68%

## OC1(Cc2ccccc2Cl)C(CN2CCCCC2)CCCC1CN1CCCCC1 (stereo not drawn) [1-(2-chlorobenzyl)-2,6-bis-piperidin-1-ylmethyl-cyclohexanol]
  inhibition at 10 µM: 100%

## COc1ccccc1C1(O)C(CN2CCCCC2)CCCC1CN1CCCCC1 (stereo not drawn) [1-(2-methoxy-phenyl)-2,6-bis-piperidin-1-ylmethyl-cyclohexanol]
  inhibition at 10 µM: 30%

## Cc1ccccc1CC1(O)C(CN2CCCCC2)CCCC1CN1CCCCC1 (stereo not drawn) [1-(2-methyl-benzyl)-2,6-bis-piperidin-1-ylmethyl-cyclohexanol]
  inhibition at 10 µM: 100%

## OC1(c2cc(Cl)cc(Cl)c2)C(CN2CCCCC2)CCCC1CN1CCCCC1 (stereo not drawn) [1-(3,5-dichlorophenyl)-2,6-bis-piperidin-1-ylmethyl-cyclohexanol]
  inhibition at 10 µM: 33%

## OC1(c2ccc(F)c(Cl)c2)C(CN2CCCCC2)CCCC1CN1CCCCC1 (stereo not drawn) [1-(3-chloro-4-fluorophenyl)-2,6-bis-piperidin-1-ylmethyl-cyclohexanol]
  inhibition at 10 µM: 38%

## OC1(Cc2cccc(Cl)c2)C(CN2CCCCC2)CCCC1CN1CCCCC1 (stereo not drawn) [1-(3-chlorobenzyl)-2,6-bis-piperidin-1-ylmethyl-cyclohexanol]
  inhibition at 10 µM: 98%

## OC1(c2cccc(Cl)c2)C(CN2CCCCC2)CCCC1CN1CCCCC1 (stereo not drawn) [1-(3-chlorophenyl)-2,6-bis-piperidin-1-ylmethyl-cyclohexanol]
  inhibition at 10 µM: 51%

## OC1(Cc2cccc(F)c2)C(CN2CCCCC2)CCCC1CN1CCCCC1 (stereo not drawn) [1-(3-fluorobenzyl)-2,6-bis-piperidin-1-ylmethyl-cyclohexanol]
  inhibition at 10 µM: 59%

## OC1(c2cccc(F)c2)C(CN2CCCCC2)CCCC1CN1CCCCC1 (stereo not drawn) [1-(3-fluorophenyl)-2,6-bis-piperidin-1-ylmethyl-cyclohexanol]
  inhibition at 10 µM: 48%

## COc1cccc(CC2(O)C(CN3CCCCC3)CCCC2CN2CCCCC2)c1 (stereo not drawn) [1-(3-methoxy-benzyl)-2,6-bis-piperidin-1-ylmethyl-cyclohexanol]
  inhibition at 10 µM: 80%

## Cc1cccc(CC2(O)C(CN3CCCCC3)CCCC2CN2CCCCC2)c1 (stereo not drawn) [1-(3-methyl-benzyl)-2,6-bis-piperidin-1-ylmethyl-cyclohexanol]
  inhibition at 10 µM: 100%

## OC1(c2ccc(Cl)c(C(F)(F)F)c2)C(CN2CCCCC2)CCCC1CN1CCCCC1 (stereo not drawn) [1-(4-chloro-3-trifluoromethyl-phenyl)-2,6-bis-piperidin-1-ylmethyl-cyclohexanol]
  inhibition at 10 µM: 26%

## OC1(Cc2ccc(Cl)cc2)C(CN2CCCCC2)CCCC1CN1CCCCC1 (stereo not drawn) [1-(4-chlorobenzyl)-2,6-bis-piperidin-1-ylmethyl-cyclohexanol]
  inhibition at 10 µM: 88%

## OC1(Cc2ccc(F)cc2)C(CN2CCCCC2)CCCC1CN1CCCCC1 (stereo not drawn) [1-(4-fluorobenzyl)-2,6-bis-piperidin-1-ylmethyl-cyclohexanol]
  inhibition at 10 µM: 87%

## OC1(c2cccc(C(F)(F)F)c2)C(CN2CCCCC2)CCCC1CN1CCCCC1 (stereo not drawn) [2,6-bis-piperidin-1-ylmethyl-1-(3-trifluoromethyl-phenyl)-cyclohexanol]
  inhibition at 10 µM: 56%
